Measured values published in patent US8889881B2, “Compound having skin-whitening, anti-oxidizing and PPAR activities and medical use therefor” (Pusan National University Industry —University Cooperation …, priority 2011, dated 2014).

How the values were obtained:
[1] = test system: YPEN-1 cells (rat prostatic endothelial cell line); experiment: In vitro ROS scavenging activity assay (DCFDA); format: cell-based; details: cells pre-treated with 50 μM SIN-1 for 1 hour; DCFDA fluorescence; positive control trolox; FIGS. 1 and 2
Description: YPEN-1 cells (rat prostatic endothelial cell line) was obtained from American type culture collection (ATCC, Manassas, Va., USA), and the cells were cultured by using a dulbecco's modified eagle medium (DMEM, Nissui, Tokyo, Japan) containing 2 mM L-glutamine, […], 2.5 mg/L amphotericin B, and 5% inactivated fetal bovine serum (FBS). Also, the cells were maintained at a temperature of 37° C. in a humid atmosphere-like condition containing 5% CO2 and 95% air. […] The cells were sub-cultured in 100 mm plastic flask (Corning Co., New York, USA) every two days to maintain the cell line.
2′,7′-dichlorodihydrofluorescein diacetate (DCFDA) assay method according to a conventionally known method (Chem Res Toxicol. 5: 227-231, 1992) was used. In detail, 12.5 mM DCFDA dissolved in 99.9% ethanol and 600 U/ml esterase dissolved in tertiary distilled water were stored as a stock solution at a temperature of −20° C., and a 2′,7′-dichlorodihydrofluorescein (DCFH) solution prepared by mixing 10 mM DCFDA and 6 U/ml esterase was cultured at a temperature of 22° C. for 20 minutes, and then, refrigerated in a dark place before use. […] Vascular endothelial cells that were pre-treated with 50 μM 3-morpholinosydnonimine hydrochloride (SIN-1) for 1 hour were used as a reactive oxygen generation source.

[2] = test system: Mushroom-derived tyrosinase; experiment: Tyrosinase inhibitory effect; format: biochemical; details: 1 mM L-tyrosin, pH 6.5, 25° C., 30 minutes, OD492; positive control kojic acid; FIGS. 3 and 4
Description: Mushroom-derived tyrosinase was sued as an enzyme source in the present experiment. Tyrosinase activities were assayed according to a slightly-modified conventionally known method (Life Sci., 1999, 65, 241-246). In detail, 20 μl of a mushroom-derived tyrosinase (1000 units) aqueous solution was added to 96-well microplate (Nunc, Denmark) to prepare 200 μl of the total volume of assay mixture containing 1 mM L-tyrosin solution and 50 mM phosphate buffer solution (pH 6.5). The assay mixture was cultured at a temperature of 25° C. for 30 minutes.

PPAR gamma-LBD = biological target: T1, PPAR gamma-LBD (Homo sapiens, UniProt P37231); experiment: PPAR assay, PPARγ; format: binding; details: sample final concentration 100 μM; positive control rosiglitazone; FIGS. 7 and 8
T1 sequence (P37231 238-503 limits assumed): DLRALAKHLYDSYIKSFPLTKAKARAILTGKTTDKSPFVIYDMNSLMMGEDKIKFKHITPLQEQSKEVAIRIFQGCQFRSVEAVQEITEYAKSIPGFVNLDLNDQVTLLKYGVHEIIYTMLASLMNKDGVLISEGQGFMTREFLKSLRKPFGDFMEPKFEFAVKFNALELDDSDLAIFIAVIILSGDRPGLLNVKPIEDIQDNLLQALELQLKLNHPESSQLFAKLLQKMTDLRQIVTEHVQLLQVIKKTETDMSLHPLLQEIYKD

PPAR alpha-LBD = biological target: T2, PPAR alpha-LBD (Homo sapiens, UniProt Q07869); experiment: PPAR assay, PPARα; details: for PPARα activation (competitive activation rate), compared with fenofibrate: sample final concentration 100 μM, positive control fenofibrate, FIGS. 5 and 6; for simultaneous activation of PPARα and PPARγ: summary of the PPARα and PPARγ assays, sample 100 μM
T2 sequence (Q07869 239-466 limits assumed): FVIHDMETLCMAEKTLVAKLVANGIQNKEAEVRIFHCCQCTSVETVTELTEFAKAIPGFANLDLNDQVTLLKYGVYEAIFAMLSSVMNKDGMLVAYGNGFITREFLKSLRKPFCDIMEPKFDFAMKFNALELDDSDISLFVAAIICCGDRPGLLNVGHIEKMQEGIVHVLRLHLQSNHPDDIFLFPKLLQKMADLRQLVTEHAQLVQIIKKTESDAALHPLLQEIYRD

For `O=C(O)[C@@H]1CSC(c2ccc(O)c(O)c2)N1` (mixture of isomers) [Compound 2, (2R/S,4R)-2-(3,4-dihydroxyphenyl)thiazolidine-4-carboxylic acid], the “scavenging effects on ROS generated by vascular endothelial cells, compared with trolox” value (shortened to “scavenging effects … compared with trolox”) [1] was “as high scavenging effects on ROS generated by vascular endothelial cells as trolox” and the melting point was 195.5 to 196.8 °C.

For `O=C(O)[C@@H]1CSC(c2ccc(O)cc2O)N1` (mixture of isomers) [Compound 3, (2R/S,4R)-2-(2,4-dihydroxyphenyl)thiazolidine-4-carboxylic acid], the “tyrosinase inhibitory activities, compared with kojic acid” value [2] was “better tyrosinase inhibitory activities than a kojic acid”.

With `COC(=O)[C@@H]1CSC(c2ccc(O)c(O)c2)N1` (mixture of isomers) [Compound 104, (2R/S,4R)-methyl 2-(3,4-dihydroxyphenyl)thiazolidine-4-carboxylate] the “scavenging effects … compared with trolox” value [1] was “as high scavenging effects on ROS generated by vascular endothelial cells as trolox” and the melting point was 116 to 118 °C.

In the case of `Oc1ccc(-c2nc3ccccc3s2)cc1O` [Compound 14, 4-(benzo[d]thiazol-2-yl)benzene-1,2-diol], the “scavenging effects … compared with trolox” value [1] is reported as “as high scavenging effects on ROS generated by vascular endothelial cells as trolox”.

For `Oc1ccc(-c2nc3ccccc3s2)c(O)c1` [Compound 15, 4-(benzo[d]thiazol-2-yl)benzene-1,3-diol], the “tyrosinase inhibitory activities, compared with kojic acid” value [2] was “better tyrosinase inhibitory activities than a kojic acid”.

In the case of `Oc1ccc(-c2nc3cc(C(F)(F)F)ccc3s2)cc1O` [Compound 29, 4-(5-(trifluoromethyl)benzo[d]thiazol-2-yl)benzene-1,2-diol], the “scavenging effects … compared with trolox” value [1] is reported as “as high scavenging effects on ROS generated by vascular endothelial cells as trolox” and the melting point is reported as 267.3 to 269.4 °C.

In the case of `COc1cc(-c2nc3cc(C(F)(F)F)ccc3s2)cc(OC)c1O` [Compound 40, 2,6-dimethoxy-4-(5-(trifluoromethyl)benzo[d]thiazol-2-yl)phenol], the “PPARγ activation (competitive activation rate), compared with rosiglitazone” value (shortened to “PPARγ activation … compared with rosiglitazone”) (PPAR gamma-LBD) is reported as “very excellent PPARγ activation agent compared to rosiglitazone”, the melting point is reported as 220.6 to 222.6 °C and the “PPARα activation (competitive activation rate), compared with fenofibrate” value (from here on “PPARα activation … compared with fenofibrate”) (PPAR alpha-LBD) is reported as “very excellent PPARα activation agent compared to fenofibrate”. For the same molecule, the “simultaneous activation of PPARα and PPARγ” value (shortened to “simultaneous activation”) (PPAR alpha-LBD) was “simultaneously activates PPARα and PPARγ”.

With `Oc1ccc(-c2nc3ccccc3[nH]2)cc1O` [Compound 44, 4-(1H-benzo[d]imidazol-2-yl)benzene-1,2-diol] the “scavenging effects … compared with trolox” value [1] was “as high scavenging effects on ROS generated by vascular endothelial cells as trolox”, the “PPARγ activation … compared with rosiglitazone” value (PPAR gamma-LBD) was “very excellent PPARγ activation agent compared to rosiglitazone” and the melting point was 268.5 to 269.8 °C. The “PPARα activation … compared with fenofibrate” value (PPAR alpha-LBD) was “very excellent PPARα activation agent compared to fenofibrate” and the “simultaneous activation” value (PPAR alpha-LBD) was “simultaneously activates PPARα and PPARγ”.

With `O=C(O)c1ccc2[nH]c(-c3ccc(O)cc3O)nc2c1` [Compound 59, 2-(2,4-dihydroxyphenyl)-1H-benzo[d]imidazole-5-carboxylic acid] the “PPARγ activation … compared with rosiglitazone” value (PPAR gamma-LBD) was “very excellent PPARγ activation agent compared to rosiglitazone”, the melting point was over 300 °C and the “PPARα activation … compared with fenofibrate” value (PPAR alpha-LBD) was “very excellent PPARα activation agent compared to fenofibrate”. The “simultaneous activation” value (PPAR alpha-LBD) was “simultaneously activates PPARα and PPARγ”.

With `COc1ccc(-c2nc3cc(C(=O)O)ccc3[nH]2)cc1` [Compound 63, 2-(4-methoxyphenyl)-1H-benzo[d]imidazole-5-carboxylic acid] the “PPARγ activation … compared with rosiglitazone” value (PPAR gamma-LBD) was “very excellent PPARγ activation agent compared to rosiglitazone”, the melting point was 264.7 to 265.4 °C and the “PPARα activation … compared with fenofibrate” value (PPAR alpha-LBD) was “very excellent PPARα activation agent compared to fenofibrate”. The “simultaneous activation” value (PPAR alpha-LBD) was “simultaneously activates PPARα and PPARγ”.

In the case of `Oc1ccc(C2NCCS2)cc1O` (stereo not drawn) [Compound 72, 4-(Thiazolidin-2-yl)benzene-1,2-diol], the “scavenging effects … compared with trolox” value [1] is reported as “as high scavenging effects on ROS generated by vascular endothelial cells as trolox”.

For `COc1cc(C2NCCS2)cc(OC)c1O` (stereo not drawn) [Compound 80, 2,6-dimethoxy-4-(thiazolidin-2-yl)phenol], the “scavenging effects … compared with trolox” value [1] was “as high scavenging effects on ROS generated by vascular endothelial cells as trolox”.

In the case of `CCOc1cc(-c2nc3cc(Cl)ccc3s2)ccc1O` [Compound 86, 4-(5-chlorobenzo[d]thiazol-2-yl)-2-ethoxyphenol], the “PPARγ activation … compared with rosiglitazone” value (PPAR gamma-LBD) is reported as “very excellent PPARγ activation agent compared to rosiglitazone”, the melting point is reported as 102.1 to 103.4 °C and the “PPARα activation … compared with fenofibrate” value (PPAR alpha-LBD) is reported as “very excellent PPARα activation agent compared to fenofibrate”. The “simultaneous activation” value (PPAR alpha-LBD) was “simultaneously activates PPARα and PPARγ”.

In the case of `Oc1ccc(-c2nc3cc(Cl)ccc3s2)cc1Br` [Compound 95, 2-bromo-4-(5-chlorobenzo[d]thiazol-2-yl)phenol], the “PPARγ activation … compared with rosiglitazone” value (PPAR gamma-LBD) is reported as “very excellent PPARγ activation agent compared to rosiglitazone”, the melting point is reported as 226 to 228.1 °C and the “PPARα activation … compared with fenofibrate” value (PPAR alpha-LBD) is reported as “very excellent PPARα activation agent compared to fenofibrate”. The “simultaneous activation” value (PPAR alpha-LBD) was “simultaneously activates PPARα and PPARγ”.

For `CC(C)(C)[Si](C)(C)Oc1ccc2c(-c3ccccc3)cc(=O)oc2c1O[Si](C)(C)C(C)(C)C` [Compound 100, 7,8-bis(tert-butyldimethylsilyloxy)-4-phenyl-2H-chromen-2-one], the “scavenging effects … compared with trolox” value [1] was “as high scavenging effects on ROS generated by vascular endothelial cells as trolox”.

For `O=C(O)[C@@H]1CSC(c2ccc(O)c(O)c2)=N1` [Compound 102, (4R)-2-(3,4-dihydroxyphenyl)-4,5-dihydrothiazole-4-carboxylic acid], the “scavenging effects … compared with trolox” value [1] was “as high scavenging effects on ROS generated by vascular endothelial cells as trolox” and the melting point was 178 to 179 °C.

For `COC(=O)c1csc(-c2ccc(OC(C)=O)c(OC(C)=O)c2)n1` [Compound 103, 4-(4-(Methoxycarbonyl)thiazol-2-yl)-1,2-phenylene diacetate], the “scavenging effects … compared with trolox” value [1] was “as high scavenging effects on ROS generated by vascular endothelial cells as trolox” and the melting point was 137 to 138 °C.

With `Oc1ccc(C2Nc3cc(C(F)(F)F)ccc3S2)cc1Br` (stereo not drawn) [Compound 119, 2-bromo-4-(5-(trifluoromethyl)-2,3-dihydrobenzo[d]thiazol-2-yl)phenol] the “scavenging effects … compared with trolox” value [1] was “as high scavenging effects on ROS generated by vascular endothelial cells as trolox”, the “PPARγ activation … compared with rosiglitazone” value (PPAR gamma-LBD) was “very excellent PPARγ activation agent compared to rosiglitazone” and the “PPARα activation … compared with fenofibrate” value (PPAR alpha-LBD) was “very excellent PPARα activation agent compared to fenofibrate”. For the same molecule, the “simultaneous activation” value (PPAR alpha-LBD) was “simultaneously activates PPARα and PPARγ”.
